Data from PubChem BioAssay (NCI).
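Where inhibition never reached the appropriate level, the endpoint shown equals the highest concentration tested. Otherwise, values were interpolated linearly from a five-concentration, 48-hour dose response in 96-well plates. Abbreviation: GI50, concentration required for 50% inhibition of growth. At the TGI there is no net growth.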

Assays:
Assay in all cases: NCI anticancer screen, dose series, 48 h
786-0 renal = test system: 786-0 renal
A498 renal = test system: A498 renal
ACHN renal = test system: ACHN renal
BT-549 breast = test system: BT-549 breast
CAKI-1 renal = test system: CAKI-1 renal
COLO 205 colon = test system: COLO 205 colon
DU-145 prostate = test system: DU-145 prostate
EKVX NSCLC = test system: EKVX NSCLC
HCC-2998 colon = test system: HCC-2998 colon
HCT-116 colon = test system: HCT-116 colon
HCT-15 colon = test system: HCT-15 colon
HL-60(TB) leukemia = test system: HL-60(TB) leukemia
HOP-62 NSCLC = test system: HOP-62 NSCLC
HOP-92 NSCLC = test system: HOP-92 NSCLC
HS 578T breast = test system: HS 578T breast
HT29 colon = test system: HT29 colon
IGROV1 ovarian = test system: IGROV1 ovarian
K-562 leukemia = test system: K-562 leukemia
KM12 colon = test system: KM12 colon
LOX IMVI melanoma = test system: LOX IMVI melanoma
M14 melanoma = test system: M14 melanoma
MALME-3M melanoma = test system: MALME-3M melanoma
MCF7 breast = test system: MCF7 breast
MDA-MB-231 breast = test system: MDA-MB-231 breast
MDA-MB-435 = test system: MDA-MB-435
MOLT-4 leukemia = test system: MOLT-4 leukemia
NCI-H226 lung = test system: NCI-H226 lung
NCI-H23 lung = test system: NCI-H23 lung
NCI-H460 lung = test system: NCI-H460 lung
NCI-H522 lung = test system: NCI-H522 lung
NCI/ADR-RES ovarian = test system: NCI/ADR-RES ovarian
OVCAR-3 ovarian = test system: OVCAR-3 ovarian
OVCAR-4 ovarian = test system: OVCAR-4 ovarian
OVCAR-5 ovarian = test system: OVCAR-5 ovarian
OVCAR-8 ovarian = test system: OVCAR-8 ovarian
PC-3 prostate = test system: PC-3 prostate
SF-268 CNS = test system: SF-268 CNS
SF-295 CNS = test system: SF-295 CNS
SF-539 CNS = test system: SF-539 CNS
SK-MEL-2 melanoma = test system: SK-MEL-2 melanoma
SK-MEL-28 melanoma = test system: SK-MEL-28 melanoma
SK-MEL-5 melanoma = test system: SK-MEL-5 melanoma
SK-OV-3 ovarian = test system: SK-OV-3 ovarian
SN12C renal = test system: SN12C renal
SNB-19 CNS = test system: SNB-19 CNS
SNB-75 CNS = test system: SNB-75 CNS
SR leukemia = test system: SR leukemia
SW-620 colon = test system: SW-620 colon
T-47D breast = test system: T-47D breast
TK-10 renal = test system: TK-10 renal
U251 CNS = test system: U251 CNS
UACC-257 melanoma = test system: UACC-257 melanoma
UACC-62 melanoma = test system: UACC-62 melanoma
UO-31 renal = test system: UO-31 renal

Work on `C=C(C)[C@@H]1C/C=C(\COC(=O)[C@H](OC(C)=O)C(NC(=O)c2ccccc2)c2ccccc2)CC[C@H]2O[C@]2(C)CC/C=C(\C)CC1` (stereo partly drawn) yielded a GI50 (786-0 renal) of 18.5 µM, a TGI (786-0 renal) of over 50 µM and a GI50 (A498 renal) of 13.1 µM. The TGI (A498 renal) was 44.5 µM, the GI50 (ACHN renal) was 14.6 µM and the TGI (ACHN renal) was over 50 µM. For the same compound, the GI50 (BT-549 breast) was 12.9 µM, the TGI (BT-549 breast) was 45.4 µM and the GI50 (CAKI-1 renal) was 8.64 µM. It also gave a TGI (CAKI-1 renal) of 17.8 µM, a GI50 (COLO 205 colon) of 11.2 µM and a TGI (COLO 205 colon) of 25.8 µM. The GI50 (DU-145 prostate) was 19.3 µM, the TGI (DU-145 prostate) was over 50 µM and the GI50 (EKVX NSCLC) was 18.6 µM. For the same compound, the TGI (EKVX NSCLC) was over 50 µM, the GI50 (HCC-2998 colon) was 15.1 µM and the TGI (HCC-2998 colon) was 45.4 µM. For the same compound, the GI50 (HCT-116 colon) was 12.3 µM, the TGI (HCT-116 colon) was 38.1 µM and the GI50 (HCT-15 colon) was 12.4 µM. It also gave a TGI (HCT-15 colon) of over 50 µM, a GI50 (HL-60(TB) leukemia) of 4.2 µM and a TGI (HL-60(TB) leukemia) of over 50 µM. For the same compound, the GI50 (HOP-62 NSCLC) was 31.2 µM, the TGI (HOP-62 NSCLC) was over 50 µM and the GI50 (HOP-92 NSCLC) was 31.8 µM. It also gave a TGI (HOP-92 NSCLC) of over 50 µM, a GI50 (HS 578T breast) of 15.2 µM and a TGI (HS 578T breast) of 49.4 µM. The GI50 (HT29 colon) was 13.2 µM, the TGI (HT29 colon) was 31.8 µM and the GI50 (IGROV1 ovarian) was 17.7 µM. The TGI (IGROV1 ovarian) was over 50 µM, the GI50 (K-562 leukemia) was 30.8 µM and the TGI (K-562 leukemia) was over 50 µM. It also gave a GI50 (KM12 colon) of 18.7 µM, a TGI (KM12 colon) of over 50 µM and a GI50 (LOX IMVI melanoma) of 8.98 µM. For the same compound, the TGI (LOX IMVI melanoma) was 19.3 µM, the GI50 (M14 melanoma) was 20.7 µM and the TGI (M14 melanoma) was over 50 µM. It also gave a GI50 (MALME-3M melanoma) of 14.3 µM, a TGI (MALME-3M melanoma) of 42.6 µM and a GI50 (MCF7 breast) of 8.94 µM. For the same compound, the TGI (MCF7 breast) was 22.1 µM, the GI50 (MDA-MB-231 breast) was 12 µM and the TGI (MDA-MB-231 breast) was over 50 µM. For the same compound, the GI50 (MDA-MB-435) was 16.8 µM, the TGI (MDA-MB-435) was over 50 µM and the GI50 (MOLT-4 leukemia) was 17.6 µM. It also gave a TGI (MOLT-4 leukemia) of over 50 µM, a GI50 (NCI-H226 lung) of 21.7 µM and a TGI (NCI-H226 lung) of over 50 µM. The GI50 (NCI-H23 lung) was 19.3 µM, the TGI (NCI-H23 lung) was over 50 µM and the GI50 (NCI-H460 lung) was 15.5 µM. It also gave a TGI (NCI-H460 lung) of over 50 µM, a GI50 (NCI-H522 lung) of 12.1 µM and a TGI (NCI-H522 lung) of over 50 µM. It also gave a GI50 (NCI/ADR-RES ovarian) of 18.1 µM, a TGI (NCI/ADR-RES ovarian) of over 50 µM and a GI50 (OVCAR-3 ovarian) of 12.2 µM. For the same compound, the TGI (OVCAR-3 ovarian) was 44.5 µM, the GI50 (OVCAR-4 ovarian) was 15.4 µM and the TGI (OVCAR-4 ovarian) was over 50 µM. The GI50 (OVCAR-5 ovarian) was 32.1 µM, the TGI (OVCAR-5 ovarian) was over 50 µM and the GI50 (OVCAR-8 ovarian) was 37.7 µM. The TGI (OVCAR-8 ovarian) was over 50 µM, the GI50 (PC-3 prostate) was 13.3 µM and the TGI (PC-3 prostate) was over 50 µM. The GI50 (SF-268 CNS) was 18.2 µM, the TGI (SF-268 CNS) was over 50 µM and the GI50 (SF-295 CNS) was 13.2 µM. It also gave a TGI (SF-295 CNS) of over 50 µM, a GI50 (SF-539 CNS) of 11.2 µM and a TGI (SF-539 CNS) of 27.1 µM. It also gave a GI50 (SK-MEL-2 melanoma) of 16.7 µM, a TGI (SK-MEL-2 melanoma) of over 50 µM and a GI50 (SK-MEL-28 melanoma) of 16.6 µM. For the same compound, the TGI (SK-MEL-28 melanoma) was over 50 µM, the GI50 (SK-MEL-5 melanoma) was 11.8 µM and the TGI (SK-MEL-5 melanoma) was 28 µM. It also gave a GI50 (SK-OV-3 ovarian) of over 50 µM, a TGI (SK-OV-3 ovarian) of over 50 µM and a GI50 (SN12C renal) of 10.3 µM. The TGI (SN12C renal) was 23 µM, the GI50 (SNB-19 CNS) was 27.8 µM and the TGI (SNB-19 CNS) was over 50 µM. It also gave a GI50 (SNB-75 CNS) of 17.6 µM, a TGI (SNB-75 CNS) of over 50 µM and a GI50 (SR leukemia) of 23.3 µM. The TGI (SR leukemia) was over 50 µM, the GI50 (SW-620 colon) was 16.8 µM and the TGI (SW-620 colon) was 49.7 µM. It also gave a GI50 (T-47D breast) of 23.1 µM, a TGI (T-47D breast) of over 50 µM and a GI50 (TK-10 renal) of 18.8 µM. For the same compound, the TGI (TK-10 renal) was over 50 µM, the GI50 (U251 CNS) was 14.9 µM and the TGI (U251 CNS) was over 50 µM. The GI50 (UACC-257 melanoma) was 23.3 µM, the TGI (UACC-257 melanoma) was over 50 µM and the GI50 (UACC-62 melanoma) was 16.8 µM. It also gave a TGI (UACC-62 melanoma) of over 50 µM, a GI50 (UO-31 renal) of 20.6 µM and a TGI (UO-31 renal) of over 50 µM.
